Measurements taken from patent publication US8138309B2, “Modified rubisco large subunit n-methyltransferase useful for targeting molecules to the active-site vicinity of ribulose-1,5-bisphosphate” (University of Kentucky Research Foundation, priority 2008, dated 2012).

Target: T1, spinach Rubisco (Spinacia oleracea, UniProt P00875)
T1 construct: Spinach and pea Rubisco, and pea Rubisco LSMT were purified according to McCurry; from tissue
Experiment: Rubisco carboxylase assay (14CO2 fixation, O2-free, CO2-free buffers), spinach Rubisco
Assay type: biochemical
Conditions: added to the Rubisco complex containing bound CA before the assay; AdoMet 100 μM
Protocol: Kinetic analyses were performed as described previously for Rubisco Lorimer, G. H., Badger, M. R., and Andrews, T. J. Biochemistry 15, 529-536.1976. Pierce, J. W., McCurry, S. D., Mulligan, R. M., and Tolbert, N. E. Methods Enzymol. 89 Pt D, 47-55.1982. Assays were conducted under O2 free conditions with CO2-free buffers as described below, and contained normalized Rubisco and hCAII activities, unless otherwise indicated. The assays contained, unless otherwise indicated, 100 mM Bicine adjusted to pH 8.2 with a saturated NaOH solution, 20 mM MgCl2, 2 mM dithiothreitol, 0.5 mM RuBP, and NaH^14 CO3 (1.0 mCi/mmol). Reactions were initiated by the addition of activated Rubisco, or conjugate, injected into an 8 mL serum capped vial (first flushed with nitrogen). Activation of Rubisco or conjugate was performed at 2 mg/mL by incubation at 30 C for 15 min in 50 mM Bicine, pH 8.2, containing 20 mM MgCl2 and 15 mM NaH^14CO3. Assay times, enzyme masses, volumes, or specific activities were adjusted to limit substrate consumption to 10% or less. The assays were terminated by the addition by 2N HCl (0.4 volumes), and the liquid evaporated to dryness under a stream of air at 50° C. Radioactivity was determined with a liquid scintillation analyzer (Packard 2000 CA), after addition of 0.5 mL H20 and 4.5 mL of cocktail (Bio-Safe II, RPI). […]

C[S+](CC[C@H](N)C(=O)[O-])C[C@H]1O[C@@H](n2cnc3c(N)ncnc32)[C@H](O)[C@@H]1O (stereo partly shown) [AdoMet, S-adenosylmethionine]
effect on the stimulation of carboxylase activity by bound CA: the effect of bound CA was abolished
